Where “and” joins values, the source holds several entries; their conditions need not be identical. Identical values can stand only once.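 Growth conditions: 96-well plates. Treatment: test compound, 48 hours, 5 concentrations. Analysis: linear interpolation between bracketing concentrations; unreached endpoints set to highest concentration. At the GI50, growth is halved.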 Calls of active or inactive are those of the source. No stated cut-off is given here; in the data, active = GI50 up to about 1.1 µM and inactive = higher.
Assays:
Assay in all cases: DTP human tumour cell line panel, 48 h
[1] = system: MOLT-4
[2] = system: M14
[3] = system: SN12C
[4] = system: SF-268
[5] = system: NCI-H460
[6] = system: HL-60
[7] = system: NCI-H522
[8] = system: NCI-H23
[9] = system: MCF7
[10] = system: HT-29
[11] = system: COLO 205
[12] = system: T47D
[13] = system: DLD-1
[14] = system: A549
[15] = system: U-251
[16] = system: SK-MEL-5
[17] = system: EKVX
[18] = system: 786-0
[19] = system: BT-549

Row | SMILES | GI50 [1] | GI50 [2] | GI50 [3] | GI50 [4] | GI50 [5] | GI50 [6] | GI50 [7] | GI50 [8] | GI50 [9] | GI50 [10] | GI50 [11] | GI50 [12] | GI50 [13] | GI50 [14] | GI50 [15] | GI50 [16] | GI50 [17] | GI50 [18] | GI50 [19]
1 | Cc1ccc(NCCN(C)C)c2c(=O)c3cc(O)ccc3sc12 | 0.0454 µM (active) | 4.88 µM (inactive) | 1.94 µM (inactive) | 4.35 µM (inactive) | 0.0516 µM (active) | 0.416 µM (active) | 4.33 µM (inactive) | 2.22 µM (inactive) | 0.177 µM (active) | 2.49 µM (inactive) | 8.85 µM (inactive) | 7.91 µM (inactive) | 6.61 µM (inactive) | 0.214 µM (active) | 1.63 µM (inactive) | 2.86 µM (inactive) | 12.4 µM (inactive) | 1.94 µM (inactive) | 5.4 µM (inactive)
2 | O=CC(O)C(O)C(O)COc1cc(CO)cc2c1C(=O)c1ccccc1C2=O (stereo not given) | > 100 µM (inactive) | > 100 µM (inactive) | > 100 µM (inactive) | > 100 µM (inactive) | > 87.3 µM (inactive) | > 100 µM (inactive) | > 100 µM (inactive) | > 100 µM (inactive) | – | > 100 µM (inactive) | > 100 µM (inactive) | – | > 100 µM (inactive) | > 100 µM (inactive) | > 100 µM (inactive) | 79.4 µM (inactive) | > 100 µM (inactive) | > 100 µM (inactive) | –
3 | Cc1noc(C)c1C1=CCCCc2ccccc21 | 25.7 µM (inactive) | 79.6 µM (inactive) | > 100 µM (inactive) | > 100 µM (inactive) | > 100 µM (inactive) | 21.7 µM (inactive) | 36.3 µM (inactive) | > 100 µM (inactive) | – | > 100 µM (inactive) | > 100 µM (inactive) | – | > 100 µM (inactive) | > 100 µM (inactive) | > 100 µM (inactive) | 34.1 µM (inactive) | 63.4 µM (inactive) | > 100 µM (inactive) | –
4 | CCOC(=O)C1Oc2ccc([N+](=O)[O-])cc2C1(C)O (stereo not given) | > 100 µM (inactive) | > 100 µM (inactive) | > 100 µM (inactive) | > 100 µM (inactive) | > 100 µM (inactive) | > 100 µM (inactive) | > 100 µM (inactive) | > 100 µM (inactive) | – | > 100 µM (inactive) | > 100 µM (inactive) | – | > 100 µM (inactive) | > 100 µM (inactive) | > 100 µM (inactive) | > 100 µM (inactive) | > 100 µM (inactive) | > 100 µM (inactive) | –
5 | CC(=O)c1cccc(NC(=O)C(=O)NNc2nnc(S)n2N)c1 | 3.6 µM (inactive) | 1.89 µM (inactive) | 7.4 µM (inactive) | 9.62 µM (inactive) | 4.17 µM (inactive) | 3.18 µM (inactive) | 6.37 µM (inactive) | 3.18 µM (inactive) | 4.27 µM (inactive) | 9.4 µM (inactive) | 14.2 µM (inactive) | 3.5 µM (inactive) | 7.38 µM (inactive) | 3.75 µM (inactive) | 3.57 µM (inactive) | 1.21 µM (inactive) | 14.2 µM (inactive) | 11.3 µM (inactive) | 2.34 µM (inactive)
6 | CN(C)C(=N)NC(N)=S | > 100 µM (inactive) | > 100 µM (inactive) | > 100 µM (inactive) | > 100 µM (inactive) | > 100 µM (inactive) | > 100 µM (inactive) | > 100 µM (inactive) | > 100 µM (inactive) | – | > 100 µM (inactive) | > 100 µM (inactive) | – | > 100 µM (inactive) | > 100 µM (inactive) | > 100 µM (inactive) | – | > 100 µM (inactive) | > 100 µM (inactive) | –
7 | COc1cc2c(c(OC)c1OC)-c1ccc(SC)c(=O)cc1C(CO)C2 (stereo not given) | 0.596 µM (active) | 0.103 µM (active) | 0.335 µM (active) | 0.146 µM (active) | 0.184 µM (active) | 0.0682 µM (active) | 0.0527 µM (active) | 0.307 µM (active) | – | 0.134 µM (active) | 0.166 µM (active) | – | 0.169 µM (active) | 0.22 µM (active) | 0.246 µM (active) | 0.172 µM (active) | 0.603 µM (active) | 0.355 µM (active) | –
8 | Nc1nc(SCc2ccc([N+](=O)[O-])cc2)nc2c1ncn2C1OC(CO)C(O)C1O (stereo not given) | > 100 µM (inactive) | – | 96.6 µM (inactive) | > 100 µM (inactive) | > 100 µM (inactive) | > 100 µM (inactive) | 89.5 µM (inactive) | > 100 µM (inactive) | – | > 100 µM (inactive) | > 100 µM (inactive) | – | > 100 µM (inactive) | > 100 µM (inactive) | > 100 µM (inactive) | > 100 µM (inactive) | > 100 µM (inactive) | > 100 µM (inactive) | –
9 | O=S1(=O)c2ccccc2N=C(c2ccccc2Cl)CC1c1ccc(F)cc1 (stereo not given) | 13.7 µM (inactive) | 19 µM (inactive) | 15.2 µM (inactive) | 22.1 µM (inactive) | 18.5 µM (inactive) | 14.5 µM (inactive) | 13.6 µM (inactive) | 17.1 µM (inactive) | – | – | 21.5 µM (inactive) | – | 15.2 µM (inactive) | 20 µM (inactive) | 15.1 µM (inactive) | 16.5 µM (inactive) | 18.1 µM (inactive) | 16.6 µM (inactive) | –
10 | CC(=O)OCC1OC(n2c(=S)n(-c3ccccc3)c(=O)c3cc(Br)ccc32)C(OC(C)=O)C(OC(C)=O)C1OC(C)=O (stereo not given) | > 100 µM (inactive) and 94.6 µM (inactive) | > 100 µM (inactive) | > 100 µM (inactive) | > 100 µM (inactive) | > 100 µM (inactive) | > 100 µM (inactive) | > 100 µM (inactive) | > 100 µM (inactive) | – | > 100 µM (inactive) | > 100 µM (inactive) | – | > 100 µM (inactive) | > 100 µM (inactive) | > 100 µM (inactive) | > 100 µM (inactive) | > 100 µM (inactive) | > 100 µM (inactive) | –
11 | O=c1[nH]c2c(nc1NC13CC4CC(CC(C4)C1)C3)c(=O)oc1ccccc12 | > 100 µM (inactive) | 34.3 µM (inactive) | > 100 µM (inactive) | > 100 µM (inactive) | 70.3 µM (inactive) | > 100 µM (inactive) | 61.1 µM (inactive) | 26.2 µM (inactive) | – | > 100 µM (inactive) | > 100 µM (inactive) | – | 23.8 µM (inactive) | 34 µM (inactive) | 16.6 µM (inactive) | 36.9 µM (inactive) | > 100 µM (inactive) | > 100 µM (inactive) | –
12 | CCOC(OC1=C(C#N)CCC1)C(CC)[Se]c1ccccc1 (stereo not given) | 16.8 µM (inactive) | 15.2 µM (inactive) | 14.3 µM (inactive) | 18.8 µM (inactive) | 36.4 µM (inactive) | 12.4 µM (inactive) | 13.8 µM (inactive) | 9.98 µM (inactive) | – | 26.4 µM (inactive) | 19.5 µM (inactive) | – | 19.6 µM (inactive) | 63.1 µM (inactive) | 10.3 µM (inactive) | 15 µM (inactive) | 35.7 µM (inactive) | 15 µM (inactive) | –
13 | O=C(c1ccc(Cl)cc1)c1cnc(Nc2ccccc2Cl)s1 | > 100 µM (inactive) | 19.7 µM (inactive) | 22.3 µM (inactive) | 26.4 µM (inactive) | 25.3 µM (inactive) | > 100 µM (inactive) | 23 µM (inactive) | 22 µM (inactive) | 31.5 µM (inactive) | 27.1 µM (inactive) | 37 µM (inactive) | 19.3 µM (inactive) | 28.5 µM (inactive) | 23.9 µM (inactive) | 28.1 µM (inactive) | 18.5 µM (inactive) | 22.9 µM (inactive) | 17.5 µM (inactive) | 20.7 µM (inactive)
14 | CCCCCn1cnc2c1S(=O)(=O)N(C)C(NC(=O)c1ccccc1)=N2 | > 100 µM (inactive) | – | > 100 µM (inactive) | > 100 µM (inactive) | > 100 µM (inactive) | > 100 µM (inactive) | > 100 µM (inactive) | > 100 µM (inactive) | – | > 100 µM (inactive) | > 100 µM (inactive) | – | > 100 µM (inactive) | > 100 µM (inactive) | > 100 µM (inactive) | > 100 µM (inactive) | > 100 µM (inactive) | > 100 µM (inactive) | –
15 | C=CCOC1=C2CC[C@H](O)[C@@]2(C)CCC1=O | > 100 µM (inactive) | > 100 µM (inactive) | > 100 µM (inactive) | > 100 µM (inactive) | > 100 µM (inactive) | > 100 µM (inactive) | > 100 µM (inactive) | – | – | > 100 µM (inactive) | > 100 µM (inactive) | – | > 100 µM (inactive) | > 100 µM (inactive) | > 100 µM (inactive) | > 100 µM (inactive) | > 100 µM (inactive) | > 100 µM (inactive) | –
16 | CC1=Nn2c(nnc2-c2ccccc2Cl)NC(C)(C)C1 | 47.3 µM (inactive) | > 100 µM (inactive) | > 100 µM (inactive) | > 100 µM (inactive) | > 100 µM (inactive) | 50.9 µM (inactive) | 23.8 µM (inactive) | > 100 µM (inactive) | – | > 100 µM (inactive) | 54.2 µM (inactive) | – | 54.7 µM (inactive) | > 100 µM (inactive) | 81.7 µM (inactive) | > 100 µM (inactive) | > 100 µM (inactive) | > 100 µM (inactive) | –
17 | C/C(=N\NC(=O)c1ccccc1O)C1=CNc2ccccc2S1 | 2.08 µM (inactive) | 6.65 µM (inactive) | 4.05 µM (inactive) | 3.61 µM (inactive) | 4 µM (inactive) | 3.54 µM (inactive) | 3.34 µM (inactive) | 3.6 µM (inactive) | – | 7.85 µM (inactive) | – | – | 4.23 µM (inactive) | 3.63 µM (inactive) | 5.87 µM (inactive) | 6.89 µM (inactive) | 15.3 µM (inactive) | 4.71 µM (inactive) | –

Reference: ChEMBL document CHEMBL1201862, “PubChem BioAssay data set” (2004)
